Measured values from the supplement of paper PMC9663587.

How the values were obtained:
AZD7762 = compound: NC(=O)Nc1cc(-c2cccc(F)c2)sc1C(=O)N[C@H]1CCCNC1 [AZD7762]
[1] = compound: CCC1=CN=CN=C1N2CCN(CC2)CC3=NC4=C(N3)C=C(C=C4)C(F)(F)F
R0-3306 = compound: C1=CC2=C(C=CC(=C2)C=C3C(=O)NC(=NCC4=CC=CS4)S3)N=C1 [R0-3306]
Dasatinib = compound: Cc1nc(Nc2ncc(C(=O)Nc3c(C)cccc3Cl)s2)cc(N2CCN(CCO)CC2)n1 [Dasatinib]
AZD6738 = compound: C[C@@H]1COCCN1c1cc(C2([S@](C)(=N)=O)CC2)nc(-c2cc[nH]c3nccc2-3)n1 [AZD6738]
[2] = compound: Cc1nn(C)c(COc2ccc(N3CCN(S(=O)(=O)N(C)C)CC3)cc2)c1-c1cccc2c(CCCOc3cccc4ccccc34)c(C(=O)O)n(CCN3CCOCC3)c12
THZ1 = compound: CN(C)C/C=C/C(=O)Nc1ccc(C(=O)Nc2cccc(Nc3ncc(Cl)c(-c4c[nH]c5ccccc45)n3)c2)cc1 [THZ1]
[3] = compound: COc1ccc2c(c1)[C@]1(C[C@H]1c1ccc3c(/C=C/c4ccc(CN5C[C@@H](C)O[C@@H](C)C5)cc4)n[nH]c3c1)C(=O)N2
ABT-737 = compound: CN(C)CC[C@H](CSc1ccccc1)Nc1ccc(S(=O)(=O)NC(=O)c2ccc(N3CCN(Cc4ccccc4-c4ccc(Cl)cc4)CC3)cc2)cc1[N+](=O)[O-] [ABT-737]
Volasertib/BI6727 = compound: CC[C@@H]1C(=O)N(C)c2cnc(Nc3ccc(C(=O)N[C@H]4CC[C@H](N5CCN(CC6CC6)CC5)CC4)cc3OC)nc2N1C(C)C [Volasertib/BI6727]
LEE011/Ribociclib = compound: CN(C)C(=O)c1cc2cnc(Nc3ccc(N4CCNCC4)cn3)nc2n1C1CCCC1 [LEE011/Ribociclib]
Alpelisib/BYL719 = compound: Cc1nc(NC(=O)N2CCC[C@H]2C(N)=O)sc1-c1ccnc(C(C)(C)C(F)(F)F)c1 [Alpelisib/BYL719]
[4] = compound: CNc1nc(-c2ccc3c(N)n[nH]c3c2)cc(N2C[C@@H](C(=O)NC3CCCCC3)CC[C@H]2C)n1
Pictilisib/GDC0941 = compound: CS(=O)(=O)N1CCN(Cc2cc3nc(-c4cccc5[nH]ncc45)nc(N4CCOCC4)c3s2)CC1 [Pictilisib/GDC0941]
Olaparib/AZD2281 = compound: O=C(c1cc(Cc2n[nH]c(=O)c3ccccc23)ccc1F)N1CCN(C(=O)C2CC2)CC1 [Olaparib/AZD2281]
[5] = compound: CC(=O)Nc1cccc(-n2c(=O)n(C3CC3)c(=O)c3c(Nc4ccc(I)cc4F)n(C)c(=O)c(C)c32)c1
TGX221 = compound: CC1=CN2C(=O)C=C(N=C2C(=C1)C(C)NC3=CC=CC=C3)N4CCOCC4 [TGX221]
AZD1775 = compound: C=CCn1c(=O)c2cnc(Nc3ccc(N4CCN(C)CC4)cc3)nc2n1-c1cccc(C(C)(C)O)n1 [AZD1775]
Tivantinib/ARQ197 = compound: O=C1NC(=O)[C@@H](c2cn3c4c(cccc24)CCC3)[C@@H]1c1c[nH]c2ccccc12 [Tivantinib/ARQ197]
INK128/MLN0128 = compound: CC(C)n1nc(-c2ccc3oc(N)nc3c2)c2c(N)ncnc21 [INK128/MLN0128]
Cediranib/AZD2171 = compound: COc1cc2c(Oc3ccc4[nH]c(C)cc4c3F)ncnc2cc1OCCCN1CCCC1 [Cediranib/AZD2171]
[6] = compound: CO[C@@H](C)Cn1c(=O)n(C)c2cnc3ccc(-c4cncc(C(C)(C)O)c4)cc3c21
THZ531 = compound: CN(C)C/C=C/C(=O)Nc1ccc(C(=O)N2CCC[C@@H](Nc3ncc(Cl)c(-c4c[nH]c5ccccc45)n3)C2)cc1 [THZ531]
[7] = compound: CC(=O)c1c(C)c2cnc(Nc3ccc(N4CCNCC4)cn3)nc2n(C2CCCC2)c1=O
Torin2 = compound: C1=CC(=CC(=C1)N2C(=O)C=CC3=CN=C4C=CC(=CC4=C32)C5=CN=C(C=C5)N)C(F)(F)F [Torin2]
AZD2014 = compound: CNC(=O)c1cccc(-c2ccc3c(N4CCOC[C@@H]4C)nc(N4CCOC[C@@H]4C)nc3n2)c1 [AZD2014]
Rucaparib = compound: CNCc1ccc(-c2[nH]c3cc(F)cc4c3c2CCNC4=O)cc1 [Rucaparib]
Taselisib/GDC0032 = compound: Cc1nc(-c2cn3c(n2)-c2ccc(-c4cnn(C(C)(C)C(N)=O)c4)cc2OCC3)n(C(C)C)n1 [Taselisib/GDC0032]
Doxorubicin = compound: COc1cccc2c1C(=O)c1c(O)c3c(c(O)c1C2=O)C[C@@](O)(C(=O)CO)C[C@@H]3O[C@H]1C[C@H](N)[C@H](O)[C@H](C)O1 [Doxorubicin]
BVD523 = compound: CC(C)Nc1cc(-c2c[nH]c(C(=O)N[C@H](CO)c3cccc(Cl)c3)c2)c(Cl)cn1 [BVD523]
Flavopiridol = compound: CN1CC[C@H](c2c(O)cc(O)c3c(=O)cc(-c4ccccc4Cl)oc23)[C@H](O)C1 [Flavopiridol]
Ipatasertib/GDC0068 = compound: CC(C)NC[C@@H](C(=O)N1CCN(c2ncnc3c2[C@H](C)C[C@H]3O)CC1)c1ccc(Cl)cc1 [Ipatasertib/GDC0068]
Neratinib/HKI272 = compound: CCOc1cc2ncc(C#N)c(Nc3ccc(OCc4ccccn4)c(Cl)c3)c2cc1NC(=O)/C=C/CN(C)C [Neratinib/HKI272]
senexin b = compound: CN1CCN(C(=O)c2ccc3cc(CCNc4ncnc5ccc(C#N)cc45)ccc3c2)CC1 [senexin b]
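Note: breast cancer and non-malignant breast epithelial cell lines, Deep Dye Drop or Dye Drop imaging, nine half-log doses, GR normalized to time-zero plates and DMSO-only controls.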

Row | Cell Line | GR50, 72 h (AZD7762) | GR50, 72 h [1] | GR50, 72 h (R0-3306) | GR50, 72 h (Dasatinib) | GR50, 72 h (AZD6738) | GR50, 72 h [2] | GR50, 72 h (THZ1) | GR50, 72 h [3] | GR50, 72 h (ABT-737) | GR50, 72 h (Volasertib/BI6727) | GR50, 72 h (LEE011/Ribociclib) | GR50, 72 h (Alpelisib/BYL719) | GR50, 72 h [4] | GR50, 72 h (Pictilisib/GDC0941) | GR50, 72 h (Olaparib/AZD2281) | GR50, 72 h [5] | GR50, 72 h (TGX221) | GR50, 72 h (AZD1775) | GR50, 72 h (Tivantinib/ARQ197) | GR50, 72 h (INK128/MLN0128) | GR50, 72 h (Cediranib/AZD2171) | GR50, 72 h [6] | GR50, 72 h (THZ531) | GR50, 72 h [7] | GR50, 72 h (Torin2) | GR50, 72 h (AZD2014) | GR50, 72 h (Rucaparib) | GR50, 72 h (Taselisib/GDC0032) | GR50, 72 h (Doxorubicin) | GR50, 72 h (BVD523) | GR50, 72 h (Flavopiridol) | GR50, 72 h (Ipatasertib/GDC0068) | GR50, 72 h (Neratinib/HKI272) | GR50, 72 h (senexin b)
1 | SKBR3 | 0.0203 µM | > 10 µM | 4.77 µM | 3.65 µM | 0.845 µM | > 10 µM | 0.014 µM | 0.00188 µM | > 10 µM | 0.00545 µM | 6.14 µM | 0.485 µM | 2.11 µM | 0.114 µM | > 10 µM | > 1 µM | > 10 µM | 0.206 µM | 0.273 µM | 0.00265 µM | 6.2 µM | 0.00188 µM | 0.0273 µM | 0.176 µM | 0.00361 µM | < 0.001 µM | > 10 µM | 0.00617 µM | 0.00673 µM | 6.46 µM | 0.132 µM | 3.32 µM | 0.00165 µM | > 10 µM
2 | SUM52PE | 0.0752 µM | 8 µM | 5.05 µM | 0.238 µM | 5.11 µM | 8.59 µM | 0.0156 µM | 0.00559 µM | 9.12 µM | 0.0198 µM | > 10 µM | 2.74 µM | 8.3 µM | 0.477 µM | > 10 µM | > 1 µM | > 10 µM | 4.37 µM | 0.33 µM | 0.0172 µM | 0.17 µM | 0.0079 µM | 0.149 µM | 0.564 µM | 0.0154 µM | 0.0163 µM | > 10 µM | 0.0267 µM | 0.049 µM | 5.04 µM | 0.234 µM | 6.8 µM | 3.11 µM | > 10 µM
3 | SUM159 | 0.834 µM | > 10 µM | 7.13 µM | > 10 µM | 9.98 µM | > 10 µM | 0.361 µM | 0.00426 µM | > 10 µM | 0.0247 µM | 9.31 µM | > 10 µM | > 10 µM | 4.53 µM | > 10 µM | 0.0316 µM | > 10 µM | 2.05 µM | 0.408 µM | 0.0561 µM | > 10 µM | 0.00127 µM | > 1 µM | 1.73 µM | 0.0417 µM | 0.176 µM | > 10 µM | 0.182 µM | 0.021 µM | 1.91 µM | 0.127 µM | > 10 µM | > 3.16 µM | > 10 µM
4 | SUM229PE | 0.0909 µM | > 10 µM | 6.23 µM | 0.094 µM | 3.34 µM | > 10 µM | 0.0185 µM | 0.00229 µM | 8.41 µM | 0.0135 µM | > 10 µM | > 10 µM | > 10 µM | 3.92 µM | > 10 µM | 0.00774 µM | > 10 µM | 0.00928 µM | 0.083 µM | 0.047 µM | 8.64 µM | 0.453 µM | 0.314 µM | 0.956 µM | 0.0523 µM | 0.0116 µM | > 10 µM | 0.377 µM | 0.031 µM | 1.6 µM | 0.109 µM | > 10 µM | 0.419 µM | > 10 µM
5 | T47D | 2.37 µM | 3.75 µM | 7.12 µM | > 10 µM | > 10 µM | > 10 µM | 0.0293 µM | 0.00463 µM | > 10 µM | 0.0315 µM | 0.0057 µM | 0.153 µM | 0.48 µM | 0.155 µM | > 10 µM | > 1 µM | > 10 µM | 5.09 µM | 0.346 µM | 0.00526 µM | 4.1 µM | < 0.001 µM | 0.114 µM | 0.0275 µM | 0.00602 µM | < 0.001 µM | > 10 µM | 0.00179 µM | 0.00189 µM | 3.63 µM | 0.116 µM | 0.136 µM | 0.423 µM | 1.28 µM
6 | UACC893 | 0.299 µM | 6.76 µM | 9.24 µM | > 10 µM | 9.33 µM | > 10 µM | 0.0175 µM | 0.0124 µM | 9.97 µM | 0.00357 µM | 0.0051 µM | 0.419 µM | 4.83 µM | 0.682 µM | > 10 µM | 0.0212 µM | > 10 µM | 0.236 µM | 0.297 µM | 0.00694 µM | 6.59 µM | 0.00107 µM | 0.0414 µM | 0.0209 µM | 0.00854 µM | < 0.001 µM | > 10 µM | 0.00346 µM | 0.0106 µM | 0.868 µM | 0.117 µM | 0.223 µM | 0.00274 µM | > 10 µM
7 | ZR751 | 2.29 µM | > 10 µM | > 10 µM | 0.0343 µM | > 10 µM | > 10 µM | 0.428 µM | 0.0085 µM | > 10 µM | 0.115 µM | 5.42 µM | > 10 µM | 5.91 µM | 0.672 µM | > 10 µM | 0.0293 µM | 0.371 µM | 6.23 µM | 0.657 µM | 0.00782 µM | > 10 µM | 0.0135 µM | 0.427 µM | > 3.16 µM | 0.0172 µM | < 0.001 µM | > 10 µM | 0.277 µM | 0.0247 µM | > 10 µM | 0.35 µM | > 10 µM | > 3.16 µM | > 10 µM
